How the values were obtained:
Type in all cases: cell-based, human
PARP = PARP cleavage (p84) by Western blot, densitometry
Procedure: Whole-cell protein extracts were prepared as described previously (Yu et al., 1999), and 50 μg of protein was loaded per lane, separated using SDS-PAGE on a 10-15% gel under reducing conditions, and electroblotted onto a nitrocellulose membrane ([…] Optitran BA-S-supported nitrocellulose; Schleicher and Schuell, Keene, N.H.). Equal loading was verified using GAPDH antibody. Primary rabbit antibodies with specificity for PARP and primary goat antibody with specificity for Arg were purchased from Santa Cruz Biotechnology (Santa Cruz, Calif.). Horseradish peroxidase conjugated goat anti-rabbit or horseradish goat anti-mouse secondary antibody was purchased from Jackson Immunoresearch Laboratory (West Grove, Pa.). Horseradish peroxidase-conjugated donkey anti-goat serum was purchased from Santa Cruz Biotechnology. Immune complexes were visualized using enhanced chemiluminescence detection (Pierce Chemical Co., Rockford, Ill.). Fold differences in level of chemiluminescence were determined by densitometric analyses.
Primary mouse antibody specific for p73 was purchased from IMGENEX (San Diego, Calif.). Primary mouse antibody specific for caspase 8 was purchased from Cell Signaling Technology (Beverly, Mass.). Horseradish peroxidase conjugated goat anti-rabbit or goat anti-mouse secondary antibodies were purchased from Jackson Immunoresearch Laboratory (West Grove, Pa.). Horseradish peroxidase-conjugated donkey […] serum was purchased from Santa Cruz Biotechnology. Immune complexes were visualized using enhanced chemiluminescence detection (Pierce Chemical Co., Rockford, Ill.). Fold differences in level of chemiluminescence were determined by densitometric analyses.

c-Jun = c-Jun phosphorylation (JNK substrate) by Western blot
Procedure: Similar results were also observed in α-TEA treated MCF-7 cells in the presence of JNK inhibitor II (7.5 μM of JNK inhibitor II (Calbiochem-Novabiochem Corp. San Diego, Calif.) vs. DMSO control). Specifically, 68% reduction in the level of phosphorylated c-Jun (FIG. 11B, top panel), almost 100% reduction in NOXA expression (FIG. 11B, second panel), and 29% reduction in the level of PARP cleavage (FIG. 11B, third panel).
JNK siRNA was used to determine if JNK was involved in α-TEA regulation of NOXA expression. MDA-MB-435 and MCF-7 cells were transiently transfected with siRNA specific for JNK1/2 (JNK1/2 sense (5′-AAA GAA UGU CCU ACC UUC Utt-3′), JNK1/2 antisense (5′AGA AGG UAG GAC AUU CUU Utt-3′)). The cells were then treated with α-TEA for 15 h, or 20 h, respectively. […] Likewise in MCF-7 cells JNK siRNA blocked JNK1 phosphorylation by 26% (FIG. 11D, first panel), blocked c-Jun phosphorylation by 36% (FIG. 1D, second panel), reduced protein levels of full length p73 by 66% (FIG. 1D, third panel), reduced protein levels of NOXA by 14% (FIG. 1D, fourth panel), and reduced level of PARP cleavage by 44% (FIG. 11D, fifth panel). Anti-p73 antibodies used in the foregoing experiment were purchases from IMGENEX (San Diego, Calif.).

NOXA = NOXA mRNA (RT-PCR) and protein (Western blot) levels
LNCaP cells = experiment: Apoptosis by DAPI staining, LNCaP
Procedure: Cells were plated at 2×10^6 in 100 mm cell culture plates, cultured overnight and washed with serum free media before transfection. Plasmids (0.7 μg or 4.2 of μg) or empty vector (pcDNA3) were mixed with 50 μl or 300 μl serum free media and 4 μl or 24 μl PLUS reagent (Invitrogen, CA) and incubated for 15 min at room temperature. Next 2 μl or 12 μl of Lipofectamine reagent (Invitrogen, CA) in 50 μl or 300 μl serum free media were added and the mixture incubated for another 15 min before adding to the cells in 0.5 ml or 5 ml serum free media. Cells were incubated with transfection reagents for 3 h and the growth media containing 2×FBS was added to the cells. Transfected cells were cultured overnight before α-TEA treatment. Transfection efficiency was determined to be 70% using GFP expressing plasmid.
(§1) Assessment of apoptosis based on nuclear morphology using 4′, 6-diamidino-2-phenylindole dihydrochloride (DAPI; Boehringer Mannheim Corp. Indianapolis, Ind.) has been described previously (Yu et al., 2003; Israel et al., 2000). Briefly, 1.5×10^5/well LNCaP or PC-3-GFP cells were plated in 12-well tissue culture plates and cultured overnight to allow cells to attach. On the next day, cells were treated with various concentrations of α-TEA and incubated for various time periods. At the end of treatments, cells were collected, washed with PBS, stained with 25 μl of 2 μg/ml DAPI, and viewed under a fluorescent microscope (model ICM 405 with a model 487701 filter, Zeiss). Cells which contained clearly condensed chromatin or fragmented nuclei were scored as apoptotic cells. ≧500 cells were counted in each sample. Apoptotic data are presented as percentage of apoptotic cells±S.D. for three independent experiments.
FOXO1 siRNA used in the study was purchased from Santa Cruz (Santa Cruz, Calif.). […] Transfection of human prostate cancer cells with FOXO1 siRNA or negative control siRNA was performed in 100 mm cell culture dishes at a density of 2×10^6 cells/dish using Lipofectamine 2000 (Invitrogen, Carlsbad, Calif.) and 300 pmol of siRNA duplex, resulting in a final siRNA concentration of 30 nM. siRNA transfected cells were incubated for 48-72 h prior to α-TEA treatment.

Akt = experiment: Western blot of phosphorylated Akt (Ser 473) and total Akt in prostate cancer cells
Description: Previous studies have shown that α-TEA is an effective inducer of apoptosis in human prostate cancer cells (Anderson et al., 2004). Dose- and time-dependent pro-apoptotic effects of α-TEA in prostate cancer cells are mediated by Fas/FADD/caspase-8/tBid and Fas/Daxx/Ask1/JNK1/2/Bax, leading to activation of caspases-9 and -3. Thus, the Akt inhibiting activity of α-TEA was investigated in prostate cancer cells. Since phosphorylation of Akt at Ser 473 is required for its full activation (Cheng et al., 2005), we examined the phosphorylation status of Akt using an antibody that specifically recognizes Akt phosphorylated at Ser 473 in all three Akt isoforms (Upstate Cell Signaling Solutions (Charlottesville, Va.)). α-TEA decreased the levels of the phosphorylated forms of Akt. […] As verification that the decreases in phosphorylation status of Akt correlated with decreased kinase activity, the phosphorylation status of GSK3β, a downstream Akt target, was evaluated following α-TEA treatments. […] GAPDH levels were assayed with each immunoblot assay as a protein loading control.
Since Akt has three isoforms; namely, Akt1, Akt2, and Akt3, it was of interest to determine if α-TEA treatment was reducing the phosphorylated status of all three isoforms. Following α-TEA treatment the three Akt isoforms were immunoprecipitated with isoform specific antibodies, followed by western immunoblotting analyses using antibody specific for phospho-Akt. The protein levels of the isoforms were also determined. […] Treatment diminished the phosphorylation levels in all three Akt isoforms in both LNCaP and PC-3-GFP cells.
1×10^7 LNCaP or PC-3 3-GFP cells were treated with α-TEA and lysed in RIPA lysis buffer in the presence of protease inhibitors. […] Beads were washed 4 times with PBS and the proteins were released from the beads by boiling in Laemmli buffer for 5 min. Immunoprecipitated proteins were identified by SDS-PAGE followed by western immunoblot analyses.
Since Akt is activated, at least in part, by PI3K, we were interested to see if blockage of PI3K activity using the PI3K inhibitor LY294002 (Calbiochem-Novabiochem Corp. (San Diego, Calif.)) (Vlahos et al., 1994) would augment the apoptotic response induced by α-TEA.

PC-3-GFP cells = experiment: Apoptosis by DAPI staining, PC-3-GFP
Procedure: as §1

[1] = MCF-7 cells, 40 μM α-TEA 20 h, vs DMSO or control siRNA
[2] = MDA-MB-435 cells, 40 μM α-TEA 15 h, vs vehicle or control siRNA

| SMILES | reduction of level of PARP cleavage in α-TEA treated cells (PARP; [1]) | reduction of PARP cleavage (p84 fragment) in α-TEA treated cells (PARP; MDA-MB-435 cells, 40 μM α-TEA 15 h, vs control siRNA or vehicle) | reduction of α-TEA-induced c-Jun phosphorylation (c-Jun; [1]) | reduction of α-TEA-induced c-Jun phosphorylation (c-Jun; [2]) | reduction of α-TEA-induced NOXA expression (NOXA; [1]) | reduction of α-TEA-induced NOXA expression (NOXA; [2]) | induction of apoptosis (apoptotic cells) (LNCaP cells; 6 μM LY294002, 24 h) | induction of apoptosis (apoptotic cells) (LNCaP cells; 12 μM LY294002, 24 h) | induction of apoptosis (apoptotic cells) (LNCaP cells; 25 μM LY294002, 24 h) | inhibition of levels of endogenously phosphorylated Akt (Akt; LNCaP cells, 10 μM α-TEA and/or 10 μM LY294002) | inhibition of levels of endogenously phosphorylated Akt (Akt; PC-3-GFP cells, 20 μM α-TEA and/or 10 μM LY294002) | apoptotic cells (PC-3-GFP cells; 25 μM LY294002, 24 h) | apoptotic cells (PC-3-GFP cells; 50 μM LY294002, 24 h) |
| --- | --- | --- | --- | --- | --- | --- | --- | --- | --- | --- | --- | --- | --- |
| O=C1c2ccccc2-c2n[nH]c3cccc1c23 [JNK inhibitor II] | 29% | 34% | 68% | 38% | ~100% | 41% |  |  |  |  |  |  |  |
| O=c1cc(N2CCOCC2)oc2c(-c3ccccc3)cccc12 [LY294002, 2-(4-morpholinyl)-8-phenyl-4H-1-benzopyran-4-one, reference compound] |  |  |  |  |  |  | 4.9% | 13% | 41% | 20% | 60% | 6.2% | approximately 15% |
